Reference: patent publication US10125134B2 (Mirati Therapeutics, Inc., priority 2016, dated 2018)
Read-outs that look alike come from different tables or passages of the source.

Tests used:
[1] = tested on: NCI-H358 cells (express KRas G12C), Phospho-ERK; test: Cellular inhibition of KRas G12C: Phospho-ERK in NCI-H358 cells; type: cell-based; conditions: Homo sapiens, pERK(Thr202/Tyr204) normalized with GAPDH, NCI-H358 cells, 3 hours, read-out: IC50
How it was run: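 IC50 derived by 4-parameter fit of GAPDH-normalized pERK(Thr202/Tyr204) signal, as percent of DMSO control. Signal came from in-cell immunodetection with infrared secondaries after 3 h compound exposure of KRas G12C NCI-H358 cells at 0.5% DMSO.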

KRas G12C = KRas G12C (Homo sapiens, UniProt P01116, C118S/C51S/C80L/G12C); test: KRas G12C Modification Assay (LCMS detection of covalent adduct); type: binding
How it was run: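 Cys-light KRas G12C mutant protein incubated with compound in K-Ras assay buffer, reactions quenched at set time points with 25 mM acetic acid and analysed by intact-protein LC/MS on a C-3 column. Deconvoluted mass heights expressed as percent of control (POC) relative to compound-free protein.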

[2] = normalized percent of control, tested at 5 μM concentration for 3 hours

Structure (SMILES) | IC50 ([1]; NCI-H358, 3 h) | POC (KRas G12C; [2]) | IC50 [1] | POC (KRas G12C; 5 µM)
C=CC(=O)N1CCN(c2nc(OC[C@@H]3CCN(C)C3)nc3c2CCN(c2ccccc2C(F)(F)F)C3)CC1CC#N (stereo partly drawn) [Example 281, 2-(1-acryloyl-4-(2-(((R)-1-methylpyrrolidin-3-yl)methoxy)-7-(2-(trifluoromethyl)phenyl)-5,6,7,8-tetrahydropyrido[3,4-d]pyrimidin-4-yl)piperazin-2-yl)acetonitrile] | 0.1 to 1000 nM | C (“C”>50% POC) | – | –
C=CC(=O)N1CCN(c2nc(OC[C@@H]3C[C@@H](OC)CN3C)nc3c2CCN(c2cccc(Cl)c2C(F)(F)F)C3)C[C@@H]1CC#N [Example 332, 2-[(2S)-4-[7-[3-chloro-2-(trifluoromethyl)phenyl]-2-[[(2S,4R)-4-methoxy-1-methyl-pyrrolidin-2-yl]methoxy]-6,8-dihydro-5H-pyrido[3,4-d]pyrimidin-4-yl]-1-prop-2-enoyl-piperazin-2-yl]acetonitrile] | 0.1 to 1000 nM | C (“C”>50% POC) | – | –
C=CC(=O)N1CCN(c2nc(O[C@H](C)CN(C)C)nc3c2CCN(c2cccc4ccccc24)C3)CC1 [Example 68, (R)-1-(4-(2-((1-(dimethylamino)propan-2-yl)oxy)-7-(naphthalen-1-yl)-5,6,7,8-tetrahydropyrido[3,4-d]pyrimidin-4-yl)piperazin-1-yl)prop-2-en-1-one] | > 1000 nM | A (“A”≤25% POC) | – | –
C=CC(=O)N1CCN(c2nc(OCCN3CCCC3)nc3c2CCN(c2cc(O)cc4ccccc24)C3)CC1 [Example 85, 1-(4-(7-(3-hydroxynaphthalen-1-yl)-2-(2-(pyrrolidin-1-yl)ethoxy)-5,6,7,8-tetrahydropyrido[3,4-d]pyrimidin-4-yl)piperazin-1-yl)prop-2-en-1-one] | > 1000 nM | C (“C”>50% POC) | – | –
C=CC(=O)N1CCN(c2nc(OC[C@H]3CCCN3CCO)nc3c2CCN(c2cccc4ccccc24)C3)C[C@@H]1CC#N [Example 329, 2-[(2S)-4-[2-[[(2R)-1-(2-hydroxyethyl)pyrrolidin-2-yl]methoxy]-7-(1-naphthyl)-6,8-dihydro-5H-pyrido[3,4-d]pyrimidin-4-yl]-1-prop-2-enoyl-piperazin-2-yl]acetonitrile] | 0.1 to 1000 nM | C (“C”>50% POC) | – | –
C=CC(=O)N1CCN(c2ncnc3c2CCN(c2nc(N)cc4ccccc24)C3)CC1 [Example 54, 1-[4-[7-(3-amino-1-isoquinolyl)-6,8-dihydro-5H-pyrido[3,4-d]pyrimidin-4-yl]piperazin-1-yl]prop-2-en-1-one] | – | A (“A”≤25% POC) | > 1000 nM | –
C=CC(=O)N1CCN(c2nc(OC[C@@H]3CCCN3C)nc3c2CCN(c2cccc(C)c2C(F)(F)F)C3)CC1CC#N (stereo partly drawn) [Example 265, 2-(1-acryloyl-4-(7-(3-methyl-2-(trifluoromethyl)phenyl)-2-(((S)-1-methylpyrrolidin-2-yl)methoxy)-5,6,7,8-tetrahydropyrido[3,4-d]pyrimidin-4-yl)piperazin-2-yl)acetonitrile] | 0.1 to 1000 nM | C (“C”>50% POC) | – | –
C=CC(=O)N1CCN(c2nc(OCCCN3CCOCC3)nc3c2CCN(c2ccc(O)cc2OC(F)(F)F)C3)CC1 [Example 106, 1-(4-(7-(4-hydroxy-2-(trifluoromethoxy)phenyl)-2-(3-morpholinopropoxy)-5,6,7,8-tetrahydropyrido[3,4-d]pyrimidin-4-yl)piperazin-1-yl)prop-2-en-1-one] | – | A (“A”≤25% POC) | > 1000 nM | –
C=CC(=O)N1CCN(c2nc(OC[C@@H]3CCCN3C)nc3c2CCN(c2ccccc2C(F)(F)F)C3)CC1 [Example 159, (S)-1-(4-(2-((1-methylpyrrolidin-2-yl)methoxy)-7-(2-(trifluoromethyl)phenyl)-5,6,7,8-tetrahydropyrido[3,4-d]pyrimidin-4-yl)piperazin-1-yl)prop-2-en-1-one] | > 1000 nM | C (“C”>50% POC) | – | –
C=CC(=O)N1CCN(c2nc(OCC3CN(C)CCO3)nc3c2CCN(c2cc(O)cc4ccccc24)C3)CC1 (stereo not shown) [Example 193, 1-(4-(7-(3-hydroxynaphthalen-1-yl)-2-((4-methylmorpholin-2-yl)methoxy)-5,6,7,8-tetrahydropyrido[3,4-d]pyrimidin-4-yl)piperazin-1-yl)prop-2-en-1-one] | 0.1 to 1000 nM | C (“C”>50% POC) | – | –
C=CC(=O)N1CCN(c2nc(OC[C@@H]3CCCN3C)nc3c2CCN(c2cccc(Cl)c2C(F)(F)F)C3)C[C@@H]1CC#N [Example 427, 2-((S)-1-acryloyl-4-(7-(3-chloro-2-(trifluoromethyl)phenyl)-2-(((S)-1-methylpyrrolidin-2-yl)methoxy)-5,6,7,8-tetrahydropyrido[3,4-d]pyrimidin-4-yl)piperazin-2-yl)acetonitrile] | 0.1 to 1000 nM | C (“C”>50% POC) | – | –
C=CC(=O)N1CCN(c2nc(OC[C@@H]3CCCN3C)nc3c2CCN(c2ccncc2C)C3)C[C@@H]1CC#N [Example 345, 2-[(2S)-4-[7-(3-methyl-4-pyridyl)-2-[[(2S)-1-methylpyrrolidin-2-yl]methoxy]-6,8-dihydro-5H-pyrido[3,4-d]pyrimidin-4-yl]-1-prop-2-enoyl-piperazin-2-yl]acetonitrile] | > 1000 nM | C (“C”>50% POC) | – | –
C=CC(=O)N1CCN(c2nc(OCCCN3CCOCC3)nc3c2CCN(c2cc(O)ccc2C)C3)CC1 [Example 105, 1-(4-(7-(5-hydroxy-2-methylphenyl)-2-(3-morpholinopropoxy)-5,6,7,8-tetrahydropyrido[3,4-d]pyrimidin-4-yl)piperazin-1-yl)prop-2-en-1-one] | – | B (“B”>25% POC−≤50% POC) | > 1000 nM | –
C=CC(=O)N1CCN(c2nc(OC[C@@H]3CCCN3C)nc3c2CCN(c2c(C)ccc4[nH]ncc24)C3)CC1 [Example 155, (S)-1-(4-(7-(5-methyl-1H-indazol-4-yl)-2-((1-methylpyrrolidin-2-yl)methoxy)-5,6,7,8-tetrahydropyrido[3,4-d]pyrimidin-4-yl)piperazin-1-yl)prop-2-en-1-one] | – | – | 0.1 to 1000 nM | C (key: “A”≤25% POC; “B”>25% POC−≤50% POC; “C”>50% POC)
C=CC(=O)N1CCN(c2nc(N3CCC(N(C)C)C3)nc3c2CCN(c2cc(O)cc4ccccc24)C3)CC1 (stereo not shown) [Example 13, 1-(4-(2-(3-(dimethylamino)pyrrolidin-1-yl)-7-(3-hydroxynaphthalen-1-yl)-5,6,7,8-tetrahydropyrido[3,4-d]pyrimidin-4-yl)piperazin-1-yl)prop-2-en-1-one] | > 1000 nM | C (“C”>50% POC) | – | –
C=CC(=O)N1CCN(c2nc(OC[C@@H]3CCCN3C)nc3c2CCN(c2ccc(F)c(C)c2C)C3)C[C@@H]1CC#N [Example 423, 2-((S)-1-acryloyl-4-(7-(4-fluoro-2,3-dimethylphenyl)-2-(((S)-1-methylpyrrolidin-2-yl)methoxy)-5,6,7,8-tetrahydropyrido[3,4-d]pyrimidin-4-yl)piperazin-2-yl)acetonitrile] | 0.1 to 1000 nM | C (“C”>50% POC) | – | –
C=CC(=O)N1CCN(c2nc(OCC(CO)N(C)C)nc3c2CCN(c2cc(O)cc4ccccc24)C3)CC1 (stereo not shown) [Example 55, 1-(4-(2-(2-(dimethylamino)-3-hydroxypropoxy)-7-(3-hydroxynaphthalen-1-yl)-5,6,7,8-tetrahydropyrido[3,4-d]pyrimidin-4-yl)piperazin-1-yl)prop-2-en-1-one] | 0.1 to 1000 nM | C (“C”>50% POC) | – | –
C=CC(=O)N1CCN(c2nc(OC[C@H]3CCCN3C)nc3c2CCN(c2c(C(F)(F)F)ccc4[nH]ncc24)C3)CC1CC#N (stereo partly drawn) [Example 243, 2-[4-[2-[[(2R)-1-methylpyrrolidin-2-yl]methoxy]-7-[5-(trifluoromethyl)-1H-indazol-4-yl]-6,8-dihydro-5H-pyrido[3,4-d]pyrimidin-4-yl]-1-prop-2-enoyl-piperazin-2-yl]acetonitrile] | 0.1 to 1000 nM | C (“C”>50% POC) | – | –
C=CC(=O)N1CCN(c2nc(OC[C@@H]3[C@@H](O)CCN3C)nc3c2CCN(c2cccc4ccccc24)C3)C[C@@H]1CC#N [Example 390, 2-((S)-1-acryloyl-4-(2-(((2R,3S)-3-hydroxy-1-methylpyrrolidin-2-yl)methoxy)-7-(naphthalen-1-yl)-5,6,7,8-tetrahydropyrido[3,4-d]pyrimidin-4-yl)piperazin-2-yl)acetonitrile] | 0.1 to 1000 nM | C (“C”>50% POC) | – | –
C=CC(=O)N1CCN(c2nc(OC[C@H](O)CN3CCOCC3)nc3c2CCN(c2cc(O)cc4ccccc24)C3)CC1 (single isomer, unassigned) [Example 215] | > 1000 nM | C (“C”>50% POC) | – | –
C=CC(=O)N1CCN(c2nc(OC[C@@H]3CCCN3C)nc3c2CCN(c2ccccc2CC(F)(F)F)C3)CC1CC#N (stereo partly drawn) [Example 240, 2-(1-acryloyl-4-(2-(((S)-1-methylpyrrolidin-2-yl)methoxy)-7-(2-(2,2,2-trifluoroethyl)phenyl)-5,6,7,8-tetrahydropyrido[3,4-d]pyrimidin-4-yl)piperazin-2-yl)acetonitrile] | > 1000 nM | C (“C”>50% POC) | – | –
C=CC(=O)N1CCN(c2nc(OC[C@@H]3CCCC(=O)N3)nc3c2CCN(c2cc(O)cc4ccccc24)C3)CC1 (single isomer, unassigned) [Example 61] | > 1000 nM | C (“C”>50% POC) | – | –
C=CC(=O)N1CCN(c2nc(OC[C@H]3CCCN3C)nc3c2CCN(c2cc(O)cc4ccccc24)C3)CC1CC#N (stereo partly drawn) [Example 178, 2-[4-[7-(3-hydroxy-1-naphthyl)-2-[[(2R)-1-methylpyrrolidin-2-yl]methoxy]-6,8-dihydro-5H-pyrido[3,4-d]pyrimidin-4-yl]-1-prop-2-enoyl-piperazin-2-yl]acetonitrile] | 0.1 to 1000 nM | C (“C”>50% POC) | – | –
